Laboratory results taken from patent publication US10603292B2 (Boehringer Ingelheim International GmbH, priority 2017, dated 2020).

What was measured:
[1] = tested on: oxygen-induced retinopathy (OIR) mouse model; test: Neovascular tuft formation in oxygen-induced retinopathy (OIR) mouse model; conditions: neonatal mice, 1.8 mg/kg s.c. at P12 and P14, read at P16, vs vehicle control
Procedure: Application volume was 10 ml/kg. Control animals received vehicle only.
In this context P means postnatal day. […] Starting from P12, the avascular area begins to revascularize and at the same time neovascular tufts protrude towards the vitreous. At P16 and P17, aberrant pathological neovascularization peaks and revascularization is still incomplete. Mouse eyes were enucleated, fixed in 4% PFA for at least 24 h, and embedded in paraffin. Every 3rd slide from serial sections (6 μm thick) was taken from around the region of the optic nerve. The PAS-stained sections were examined for the presence of neovascular tufts projecting into the vitreous from the inner limiting membrane of the retina. The neovascular score was defined as the mean number of neovascular cell nuclei per section found in ten sections (five on each side of the optic nerve) per eye. Tufts adjacent to the optic nerve (up to 90 μm from each side) were discriminated from counting. Data are represented as mean of 10 slides ±SEM counted tuft cells with one-way ANOVA testing and p<0.05 regarded as significant.

AOC3 = target: T1, AOC3 (Mus musculus, UniProt O70423); test: AOC3 activity in sentinel lung tissue homogenates of OIR mice; conditions: 1.8 mg/kg s.c.
T1 sequence (O70423 1-765): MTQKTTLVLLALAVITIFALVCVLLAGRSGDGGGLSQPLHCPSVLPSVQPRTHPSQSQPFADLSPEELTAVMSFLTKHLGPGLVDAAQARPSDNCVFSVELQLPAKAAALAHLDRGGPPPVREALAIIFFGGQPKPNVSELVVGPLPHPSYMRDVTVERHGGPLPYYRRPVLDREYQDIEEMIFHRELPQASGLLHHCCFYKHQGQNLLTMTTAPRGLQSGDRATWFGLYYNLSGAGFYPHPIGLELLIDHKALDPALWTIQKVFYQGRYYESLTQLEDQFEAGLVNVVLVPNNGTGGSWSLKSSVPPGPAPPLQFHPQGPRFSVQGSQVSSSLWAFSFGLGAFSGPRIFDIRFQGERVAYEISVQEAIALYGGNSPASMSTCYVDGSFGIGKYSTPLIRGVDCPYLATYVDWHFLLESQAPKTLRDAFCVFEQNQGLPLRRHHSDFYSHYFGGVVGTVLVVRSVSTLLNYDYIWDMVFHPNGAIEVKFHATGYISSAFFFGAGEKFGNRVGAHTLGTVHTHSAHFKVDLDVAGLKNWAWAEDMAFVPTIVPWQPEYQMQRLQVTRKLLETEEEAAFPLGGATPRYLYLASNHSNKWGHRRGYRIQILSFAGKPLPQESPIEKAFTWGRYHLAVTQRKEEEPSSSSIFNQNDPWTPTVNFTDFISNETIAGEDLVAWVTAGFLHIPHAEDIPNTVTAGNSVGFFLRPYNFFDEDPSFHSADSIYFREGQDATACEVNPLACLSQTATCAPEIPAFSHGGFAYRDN

[2] = tested on: STZ-induced diabetic rat model; test: Retinal function (ERG light sensitivity) in STZ-induced diabetic rat model; type: in vivo; conditions: STZ diabetic rats, 1.8 mg/kg orally twice daily for 5 weeks; group 3 compared to diabetic vehicle group 2
Procedure: Male Brown Norway rats (BN rats) were obtained from Charles River (Germany). Hyperglycemia was induced by i.p. injections of STZ (65 mg/kg body weight). […] API was used in the form of its hydrochloride. Retinal function was assessed via electroretinography (ERG) recordings. ERG is a non-invasive electrophysiological technique to assess light-induced electrical activity of different retinal neurons, and allows for quantifying different aspects of retinal function such as dim light or color vision. After induction of diabetes via i.p. STZ application (day 1), diabetic (hyperglycemic) animals were randomized into groups of similar blood glucose concentrations (>20 mM at day 5). At week 5 post diabetes induction, ERG recordings were performed to quantify the extent of neuronal dysfunction in the retina. […] The light sensitivity of rod-driven ERG b-wave responses is a measure for the number of neurons participating in the rod-driven retinal pathway (in particular photoreceptors and downstream bipolar cells), and their sensitivity towards light stimuli in order to produce depolarizing light responses. […]

Row | Inhibition of AOC3 activity in sentinel lung tissue homogenates (AOC3) | Increase in normalized light sensitivity of rod-driven ERG b-wave responses [2] | SMILES | Reduction of retinal neovascular tuft formation (tuft number) [1]
1 | no significant effect | – | C[C@@H]1C[C@H]2[C@@H]3CCC4=CC(=O)C=C[C@]4(C)[C@@]3(F)[C@@H](O)C[C@]2(C)[C@@]1(O)C(=O)CO [Dexamethasone] | 57%
2 | – | ~30% | CC(C)(C)NC(=O)c1ccc(OC/C(=C/F)CN)cc1 [API, (E)-4-(2-(aminomethyl)-3-fluoroallyloxy)-N-tert-butylbenzamide] | 49%
